Experimental data reported in PMC4287489, “Ribose 5-Phosphate Isomerase B Knockdown Compromises Trypanosoma brucei Bloodstream Form Infectivity” (PLoS Neglected Tropical Diseases, 2015).

Assays:
[1] = molecular target: T1, Trypanosoma cruzi ribose 5-phosphate isomerase B (TcRpiB) (Trypanosoma cruzi, UniProt Q4DBP9); assay: enzyme kinetics (Km), direct spectrophotometric assay at […] nm; assay type: biochemical
T1 construct: gene Tc00.1047053508601.119; recombinant N-terminal 6xHis-tagged TcRpiB (CL Brener Non-Esmeraldo-like) expressed in E. coli; 159 residues per monomer
T1 sequence (Q4DBP9 entry or part of it): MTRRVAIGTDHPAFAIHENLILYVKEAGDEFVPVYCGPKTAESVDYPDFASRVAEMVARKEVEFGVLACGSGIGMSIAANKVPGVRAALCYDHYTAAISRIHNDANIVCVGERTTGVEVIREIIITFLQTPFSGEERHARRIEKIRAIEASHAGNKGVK

[2] = tested on: O=C(CO)[C@H](O)[C@H](O)COP(=O)(O)O; assay: purified protein
[3] = molecular target: T1, Trypanosoma cruzi ribose 5-phosphate isomerase B (TcRpiB); assay: spectrophotometric isomerase assay; Ki from Kmapp/Vmax plot; IC50 […]; assay type: biochemical
[4] = molecular target: T2, Trypanosoma brucei ribose 5-phosphate isomerase B (TbRpiB) (Trypanosoma brucei, UniProt Q384D1); assay: spectrophotometric isomerase assay ([…] nm) and cysteine-carbazole assay; Ki from Kmapp/Vmax plot; IC50 […]; assay type: biochemical
T2 construct: gene Tb11.01.0700; recombinant N-terminal 6xHis-tagged TbRpiB expressed in E. coli; 155 residues per monomer
T2 sequence (Q384D1 entry or part of it): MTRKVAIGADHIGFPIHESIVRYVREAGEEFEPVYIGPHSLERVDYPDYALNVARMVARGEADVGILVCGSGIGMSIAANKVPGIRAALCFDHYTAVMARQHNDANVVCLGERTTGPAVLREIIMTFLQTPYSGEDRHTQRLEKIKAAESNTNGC

For `O=P(O)(O)OC[C@H]1OC(O)[C@H](O)[C@@H]1O` (stereo partly drawn) [R5P, D-ribose 5-phosphate], the “enzyme kinetics (Km), direct spectrophotometric assay at 290 nm” value [1] was “enzymes have in vitro ribose 5-phosphate isomerase activity, as these proteins can use both R5P and Ru5P as substrates”.

“Trypanosoma brucei ribose 5-phosphate isomerase B (TbRpiB) (Trypanosoma brucei brucei TREU927)” gave a Km [2] of 2390 ± 940 µM, a kcat [2] of 39.4 ± 5.32 s⁻¹ and a kcat/Km [2] of 16400 M⁻¹ s⁻¹.

For `O=C(NO)[C@H](O)[C@H](O)COP(=O)(O)O` [4-PEH, 4-deoxy-4-phospho-D-erythronohydroxamic acid], the Ki [3] was 1600 µM and the Ki [4] was 2200 µM.
